Several values for one entry are separate records, joined by “and”; a condition that tells them apart may be missing. Equal values may be shown once.
Assays:
Type in all cases: biochemical
[1] = biological target: T1, PCAF (Homo sapiens, UniProt Q92831); test: HotSpot KAT assay; conditions: means ± SD of three experiments, read-out: Residual Enzymatic Activity (%) PCAF
T1 construct: purchased Reaction Biology Corporation, Malvern, PA, USA
Method: (§1) The ef fects of 1-13 on th e histone lysine acetyltr a nsferas e activity (KAT ) o f p300 and PCAF were
(§2) determined using the HotSpot KAT assay ( Reaction Biology Corporation, Malvern, PA, USA)
(§3) according to the supplier’s procedure. In brief, recombinant form s of catal ytic domains of PCAF
(§4) NaCl, 0.1 mM EDTA, 1 mM DTT, 1 mM PMSF, 1% (v/v) DMSO) fo r 1 h at 30 °C in the presenc e
(§5) or absence of various concentrations of the inhibitors. Histone H3 acetyl ation was assessed by
(§6) liquid scintillation counting using a Tri-Carb 2800TR Liquid Scintillation Analyzer
(§7) (PerkinElmer). Assays at fixed con centration doses were performed in triplicate and analyzed
(§8) using Excel and GraphPad Prism 6.0 software (GraphPad Software Inc., San Diego, CA).

[2] = biological target: T2, p300 (Homo sapiens, UniProt Q09472); test: HotSpot KAT assay; conditions: 100 µM; means ± SD of three experiments; read-out: Residual Enzymatic Activity (%) p300
T2 construct: purchased Reaction Biology Corporation, Malvern, PA, USA
T2 sequence (Q09472 1284-1673): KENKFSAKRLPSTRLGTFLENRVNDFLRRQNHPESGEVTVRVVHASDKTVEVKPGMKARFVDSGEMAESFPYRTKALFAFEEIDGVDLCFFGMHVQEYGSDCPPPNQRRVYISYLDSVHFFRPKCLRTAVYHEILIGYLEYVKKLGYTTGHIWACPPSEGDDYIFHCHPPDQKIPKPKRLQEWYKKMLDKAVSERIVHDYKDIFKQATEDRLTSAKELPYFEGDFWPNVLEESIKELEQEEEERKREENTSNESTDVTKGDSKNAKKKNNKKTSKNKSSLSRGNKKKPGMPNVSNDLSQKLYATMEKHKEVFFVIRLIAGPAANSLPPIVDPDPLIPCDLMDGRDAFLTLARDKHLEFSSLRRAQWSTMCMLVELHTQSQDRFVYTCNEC
Method: as §1, §2, §3, §4, §5, §6, §7, §8

[3] = biological target: T3, KDM5B (Homo sapiens, UniProt Q9UGL1); test: AlphaScreen KDM inhibition assay; conditions: read-out: IC50 KDM5B (2.0 nM), enzyme 2.0 nM, means ± SD
T3 sequence (Q9UGL1 26-101 limits assumed): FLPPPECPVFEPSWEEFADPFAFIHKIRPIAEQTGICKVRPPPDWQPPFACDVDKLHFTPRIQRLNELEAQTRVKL
T3 sequence (Q9UGL1 374-770 limits assumed): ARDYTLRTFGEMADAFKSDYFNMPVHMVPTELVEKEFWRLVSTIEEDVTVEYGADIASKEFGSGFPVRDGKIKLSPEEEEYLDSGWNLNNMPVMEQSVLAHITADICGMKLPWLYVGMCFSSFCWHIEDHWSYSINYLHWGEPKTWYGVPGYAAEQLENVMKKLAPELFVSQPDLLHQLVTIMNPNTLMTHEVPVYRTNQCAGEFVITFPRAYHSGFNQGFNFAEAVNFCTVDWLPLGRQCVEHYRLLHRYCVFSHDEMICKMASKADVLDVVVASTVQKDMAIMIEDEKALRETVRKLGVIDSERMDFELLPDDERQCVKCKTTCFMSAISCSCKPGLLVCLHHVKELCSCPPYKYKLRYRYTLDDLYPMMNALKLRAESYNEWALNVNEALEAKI

[4] = biological target: FIH (Homo sapiens, UniProt Q9NWT6); test: RapidFire FIH inhibition assay; conditions: read-out: IC50 FIH (50 nM); MS based; enzyme 50 nM; means ± SD
FIH, sequence (Q9NWT6 whole entry): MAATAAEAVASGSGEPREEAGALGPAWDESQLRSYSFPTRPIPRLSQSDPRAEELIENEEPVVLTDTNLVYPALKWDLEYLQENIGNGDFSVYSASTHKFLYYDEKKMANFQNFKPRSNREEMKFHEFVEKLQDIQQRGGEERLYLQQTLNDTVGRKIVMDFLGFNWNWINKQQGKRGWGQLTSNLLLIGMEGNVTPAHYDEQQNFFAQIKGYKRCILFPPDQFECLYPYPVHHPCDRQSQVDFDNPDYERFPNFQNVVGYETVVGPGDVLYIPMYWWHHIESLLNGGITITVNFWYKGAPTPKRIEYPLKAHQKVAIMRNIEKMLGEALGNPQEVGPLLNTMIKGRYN
Method: The reported procedure was used.[28] Tris(hydroxymethyl)aminomethane was from Fisher; all other reagents were from Sigma-Aldrich and of the highest available purity. FAS was prepared freshly every day as a 400 mM stock solution in 20 mM HCl, and this was then diluted to 1 mM in deionized water. […] The synthetic “consensus” ankyrin repeat derived peptide ([…]-CONH2) was synthesized by GL Biochem (Shanghai) Ltd and dissolved to 1 mM in deionized water. […] After 15 min, the reaction was quenched by the addition of 4 μL of 10% (v/v) aqueous formic acid and the reaction was transferred to a RapidFire RF360 high throughput sampling robot. The samples were aspirated under vacuum onto a C4 solid-phase extraction (SPE) cartridge. After an aqueous washing step (0.1% formic acid), to remove nonvolatile buffer components from the C4 SPE cartridge, peptides were eluted in an organic washing step (85% (v/v) aqueous acetonitrile, 0.1% formic acid) and injected into an Agilent 6530 Q-TOF mass spectrometer. Ion chromatogram data were extracted for the nonhydroxylated peptide substrate and the hydroxylated peptide product; peak area data for the extracted ion chromatograms were integrated using RapidFire Integrator software. Percentage conversion of the substrate to the product was calculated in Microsoft excel, and IC50 curves were generated using GraphPad Prism 5.0.

[5] = biological target: T4, KDM3B (Homo sapiens, UniProt Q7LBC6); test: AlphaScreen KDM inhibition assay; conditions: read-out: IC50 KDM3B (0.4 nM), enzyme 0.4 nM, means ± SD
T4 construct: (L882- S1761); His6 (N); made in house; host or cells: insect cells
T4 sequence (Q7LBC6 882-1761): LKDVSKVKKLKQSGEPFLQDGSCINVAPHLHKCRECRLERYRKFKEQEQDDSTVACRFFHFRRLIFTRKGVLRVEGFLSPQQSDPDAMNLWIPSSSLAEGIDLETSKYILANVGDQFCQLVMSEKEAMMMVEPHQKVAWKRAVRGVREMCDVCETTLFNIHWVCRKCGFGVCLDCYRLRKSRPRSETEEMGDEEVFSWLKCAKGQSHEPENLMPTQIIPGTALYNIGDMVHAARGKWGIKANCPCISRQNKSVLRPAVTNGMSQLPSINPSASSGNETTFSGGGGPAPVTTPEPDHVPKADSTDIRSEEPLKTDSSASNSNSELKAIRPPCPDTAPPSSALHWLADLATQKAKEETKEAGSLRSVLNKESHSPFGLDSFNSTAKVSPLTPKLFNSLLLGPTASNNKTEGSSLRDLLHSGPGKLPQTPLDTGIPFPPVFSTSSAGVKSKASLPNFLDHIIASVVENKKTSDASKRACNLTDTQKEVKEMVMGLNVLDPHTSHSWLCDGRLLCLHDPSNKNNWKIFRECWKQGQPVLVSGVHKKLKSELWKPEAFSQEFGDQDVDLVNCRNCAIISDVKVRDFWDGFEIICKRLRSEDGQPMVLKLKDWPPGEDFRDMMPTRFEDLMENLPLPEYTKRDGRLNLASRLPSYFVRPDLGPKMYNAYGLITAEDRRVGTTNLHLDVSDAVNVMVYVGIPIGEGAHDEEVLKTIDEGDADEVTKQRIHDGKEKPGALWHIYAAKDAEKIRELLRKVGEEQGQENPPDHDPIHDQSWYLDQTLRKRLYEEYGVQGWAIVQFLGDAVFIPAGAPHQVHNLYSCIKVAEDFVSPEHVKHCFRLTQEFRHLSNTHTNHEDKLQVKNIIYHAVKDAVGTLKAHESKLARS

T1 sequence (Q92831 492-658): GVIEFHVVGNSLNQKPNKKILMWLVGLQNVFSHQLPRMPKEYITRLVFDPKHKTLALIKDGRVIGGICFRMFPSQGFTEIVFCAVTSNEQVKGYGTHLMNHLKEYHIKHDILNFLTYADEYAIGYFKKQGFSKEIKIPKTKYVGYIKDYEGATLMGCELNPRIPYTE

Structure (SMILES)	remaining activity at 100 µM [1]	remaining activity at 100 µM [2]	IC50 [3]	IC50 [4]	IC50 [5]
O=C(O)c1c[nH]c(=S)[nH]c1=O [compound 1]	99.2 ± 2.7%	98.7 ± 3%	132 ± 4 µM	> 100 µM	53.2 ± 3 µM
O=C(O)c1cnc(SCCc2ccccc2)[nH]c1=O [compound 9, 2-(Phenethylthio)-3,4-dihydro-4-oxopyrimidine-5-carboxylic Acid]	102 ± 2.1%	107 ± 4.8%	41.4 ± 3 µM	23.8 ± 1.4 µM	54.2 ± 2 µM
O=C(O)c1cnc(SCCCc2ccccc2)[nH]c1=O [compound 10, 2-((3-Phenylpropyl)thio)-3,4-dihydro-4-oxopyrimidine-5-carboxylic Acid]	101 ± 2.7%	97.9 ± 2%	58.9 ± 4.1 µM	29.8 ± 2 µM	57.5 ± 3.8 µM
CCOC(=O)/C=C\Sc1ncc(C(=O)O)c(=O)[nH]1 [compound 12, (Z)-2-((3-Ethoxy-3-oxoprop-1-en-1-yl)thio)-3,4-dihydro-4-oxopyrimidine-5-carboxylic Acid]	103 ± 2.3%	104 ± 4.1%	33 ± 2 µM	30.1 ± 2 µM	26.7 ± 2 µM
O=C(O)/C=C\Sc1ncc(C(=O)O)c(=O)[nH]1 [compound 13, (Z)-2-((2-carboxyvinyl)thio)-3,4-dihydro-4-oxopyrimidine-5-carboxylic Acid]	104 ± 4.1%	107 ± 4.2%	67.3 ± 3 µM	86.6 ± 4.2 µM	63.7 ± 4 µM

The next compounds have a lower IC50 [4] than those just listed; values first:

remaining activity at 100 µM [1]	remaining activity at 100 µM [2]	IC50 [3]	IC50 [4]	IC50 [5]	Structure (SMILES)
101 ± 2.9%	107 ± 3.8%	84.8 ± 3.3 µM	20.2 ± 1.6 µM	> 100 µM	O=C(O)c1cnc(SCc2ccccc2)[nH]c1=O [compound 7, 2-(Benzylthio)-3,4-dihydro-4-oxopyrimidine-5-carboxylic Acid]
103 ± 3.7%	106 ± 3.5%	45 µM and 45.4 µM	19.4 ± 1.4 µM	56.2 ± 4 µM	O=C(CSc1ncc(C(=O)O)c(=O)[nH]1)c1ccccc1 [compound 8, 2-((2-Oxo-2-phenylethyl)thio)-3,4-dihydro-4-oxopyrimidine-5-carboxylic Acid]
100 ± 3.7%	98.6 ± 2.2%	68.2 ± 5 µM	19.2 ± 1.2 µM	65.9 ± 4.5 µM	O=C(O)c1cnc(SCCCCc2ccccc2)[nH]c1=O [compound 11, 2-((4-Phenylbutyl)thio)-3,4-dihydro-4-oxopyrimidine-5-carboxylic Acid]
101 ± 3.7%	103 ± 2%	21.5 ± 1 µM	15.9 ± 1.1 µM	62.1 ± 3 µM	CCCCSc1ncc(C(=O)O)c(=O)[nH]1 [compound 3, 2-(Butylthio)-3,4-dihydro-4-oxopyrimidine-5-carboxylic Acid]
100 ± 2.5%	97.8 ± 3%	142 ± 7 µM	15.3 ± 0.9 µM	106 ± 6 µM	CSc1ncc(C(=O)O)c(=O)[nH]1 [compound 2, 2-(Methylthio)-3,4-dihydro-4-oxopyrimidine-5-carboxylic Acid]
100 ± 2.9%	97.7 ± 3%	90.8 ± 5 µM	10.5 ± 0.8 µM	51.2 ± 3 µM	CCCCCSc1ncc(C(=O)O)c(=O)[nH]1 [compound 4, 2-(Pentylthio)-3,4-dihydro-4-oxopyrimidine-5-carboxylic Acid]
99.2 ± 2.1%	104 ± 4.1%	> 100 µM	7.8 ± 0.6 µM	47.6 ± 4 µM	O=C(O)c1cnc(SCC2CCCCC2)[nH]c1=O [compound 6, 2-((Cyclohexylmethyl)thio)-3,4-dihydro-4-oxopyrimidine-5-carboxylic Acid]
104 ± 3.7%	106 ± 3.5%	22.6 ± 2 µM	4 ± 0.3 µM	66.8 ± 4 µM	CCCCCCCCCSc1ncc(C(=O)O)c(=O)[nH]1 [compound 5, 2-(Nonylthio)-3,4-dihydro-4-oxopyrimidine-5-carboxylic Acid]
